Laboratory results taken from patent publication US20140309295A1, “ANTIEPILEPTIC, HYPOCHOLESTEROLEMIC AND NEUROPROTECTIVE COMPOUND” (NEURON BIOPHARMA, S.A., priority 2009, published 2014).

Key:
caspase 3/7 = assay: Inhibition of camptothecin-induced activation of caspase 3/7 in SK-N-MC cells; format: cell-based, human; conditions: 100 μM mevalonate with NST0037 pretreatment
Protocol: The assay was performed on human neuroblastoma SK-N-MC cells in culture from the American Type Culture Collection (ATCC), in all cases strict rules of sterility were followed and the manipulation was performed in class II biological safety cabinets following European standard EN 12469. The cells were maintained in the following culture medium: Minimum Essential Medium Eagle (MEM) supplemented with 1 mM sodium pyruvate, 2 mM L-glutamine, 0.1 mM non-essential amino acids, 0.05 mg/ml gentamicin and 10% fetal bovine serum. The induction of apoptosis on the cells in culture was performed by means of incubation with camptothecin (CPT), which triggers cell apoptosis activation. The apoptosis was determined by means of the measurement of the activation of effector caspases, caspase 3 or caspase 7, for which a kit for the fluorometric detection of active caspase 3/7 (Apo-ONE® Homogeneous Caspase-3/7, Promega) was used. The active caspase 3 or 7 of the cells cause the rupture of a substrate, which leads to fluorescence emission, which is read by means of a fluorometer. The effect of the pretreatment of compound NST0037 at 10 and 40 μM on the activation of caspase 3/7 caused by 50 μM of camptothecin (CPT) in the SK-N-MC cells was thus analyzed. These cells, not exceeding 15 passages, were seeded on 96-well plates treated for adherent cells with a cell concentration of 5×10^4 cells/well, 3 wells of the plate were seeded for each condition of the assay. After 24 hours of cell incubation at 37° C. and 5% CO2, the pretreatment with NST0037 at 10 and 40 μM was performed. […] On the following day, fluorescence was measured (499/521 nm, […]).

[1] = system: human neuroblastoma SK-N-MC cells; assay: Inhibition of camptothecin-induced apoptosis by flow cytometry (sub-G1); format: cell-based; conditions: pretreatment 40 μM NST0037 with 100 μM mevalonate
Protocol: (§1) The assay was performed on human neuroblastoma SK-N-MC cells in culture from the American Type Culture Collection (ATCC), in all cases strict rules of sterility were followed and the manipulation was performed in class II biological safety cabinets following European standard EN 12469. The cells were maintained in the following culture medium: Minimum Essential Medium Eagle (MEM) supplemented with 1 mM sodium pyruvate, 2 mM L-glutamine, 0.1 mM non-essential amino acids, 0.05 mg/ml gentamicin and 10% fetal bovine serum.
The inhibition caused by compound NST0037 against apoptosis (programmed cell death) caused by treatment with camptothecin which inhibits the enzyme Topoisomerase I, which prevents DNA duplication and triggers apoptotic cell death, was analyzed. These cells, not exceeding 15 passages, were seeded on 6-well plates treated for adherent cells with a cell concentration of 8×10^5 cells/well and 7×10^5 cells/well for the assay with pretreatment; 2 wells of the plate were seeded for each condition of the assay.
After 24 hours of cell incubation at 37° C. and 5% CO2, the cell treatments were performed with 2 ml of total volume for the following conditions: • Control: culture medium (medium) • Camptothecin: medium plus camptothecin 50 μM. • Camptothecin plus Z-VAD-fmk: medium plus 50 μM camptothecin plus 50 μM Z-VAD-fmk, as positive inhibition control. • Camptothecin plus NST0037: medium plus 50 μM camptothecin plus NST0037 at 10, 40 or 100 μM.
In the assay with pretreatment, the cells were previously treated with 40 μM of NST0037, 100 μM of mevalonate or both together for 24 hours and then they were treated with 50 μM camptothecin, the rest of the procedure was similar to the assay without pretreatment.
The cells were incubated (at 37° C. and 5% CO2) with these treatments for 6 hours, after which time they were collected along with their culture medium and centrifuged at 300×g for 5 minutes. The medium was removed, a washing was performed with PBS and the cells were fixed for 2 minutes with 500 μl of 70% ethanol at −20° C. Once fixed, they were centrifuged at 400×g for 5 minutes, washed with PBS and 0.05 mg/ml propidium iodide, diluted in cycling buffer (0.1% sodium citrate, 0.3% Nonidet P-40 and 0.02 mg/ml RNase) were added and they were incubated for 1 hour at 37° C. After this time they were analyzed by flow cytometry, comparing the fluorescence of propidium iodide against the amount of DNA. The percentage of apoptosis was measured on the sub-G1 region of each of the conditions.

[2] = system: human neuroblastoma SK-N-MC cells; assay: Protection against neuronal death induced by oxidative stress (xanthine/xanthine oxidase), WST-1; format: cell-based
Protocol: as §1
The inhibition caused by compound NST0037 of cell death caused by treatment with xanthine/xanthine oxidase which generates oxidative damage (causes free radicals such as hydrogen peroxide, superoxide anion, hydroxyl radical), which triggers cell death, was analyzed. These cells, not exceeding 15 passages, were seeded on 96-well plates treated for adherent cells with a cell concentration of 5×10^4 cells/well; 3 wells of the plate were seeded for each condition of the assay.
After 24 hours of cell incubation at 37° C. and 5% CO2, the cell treatments were performed with 100 μl of total volume for the following conditions: • Control: culture medium (medium) • Xanthine/xanthine oxidase (XXO): medium plus 10 μM xanthine/60 mU/mL xanthine oxidase, causing the death of 50% of the cells. • XXO plus NST0037: medium plus XXO (10 μM/60 mU/mL) plus NST0037 at 1, 4, 10, 20, 40 or 100 μM.
The cells were incubated (at 37° C. and 5% CO2) with these treatments for 22 hours, after which time the WST-1 reagent (Roche) was added. The Test WST-1 is based on the measurement of metabolic activity. Cell damage causes the loss of the ability of cells to obtain the energy necessary to maintain their metabolic functions and cell growth, therefore the metabolically active (live) cells reduce tetrazolium salt to formazan by means of the succinate-tetrazolium reductase system (of the mitochondrial respiratory chain). The formazan which is formed can be detected colorimetrically since it has an absorbance of 440 nm. The reading was taken in a plate reader at 440 nm 2 hours after adding the reagent.
The assay was performed on human neuroblastoma SK-N-MC cells in culture from the American Type Culture Collection (ATCC), in all cases strict rules of sterility were followed and the manipulation was performed in class II biological safety cabinets following European standard EN 12469. […]
The effect of mevalonate on the protection caused by compound NST0037 against cell death caused by the treatment with xanthine/xanthine oxidase generating oxidative damage and cell death was analyzed. […]

CC(O)(CCO)CC(=O)O (stereo not shown) [mevalonate, reference compound]
effect of mevalonate on inhibition of caspase 3/7 by NST0037 (caspase 3/7): reverted this inhibition | effect of mevalonate on the protection exerted by NST0037 against apoptosis [1]: partially inhibited | effect of mevalonate on protection by NST0037 against death by XXO ([2]; 40 μM NST0037 plus mevalonate at 10, 40 and 100 μM): inhibited | protection by mevalonate alone against death by XXO ([2]; mevalonate at 10, 40 or 100 μM): does not protect against death by XXO
